The text below walks through data of US12319672B2, “Alpha-D-galactopyranoside derivatives” (Idorsia Pharmaceuticals Ltd, priority 2019, dated 2025).

In one experiment the target is human Gal-3 (hGal-3) (Homo sapiens (Human), UniProt P17931). The experiment is described as follows: Competitive binding assay: binding of biotinylated hGal-3 to microplate-adsorbed asialofetuin (ASF). Conditions: Activity on hGal-3; mean values of several measurements. In short, it runs like this:
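Biotinylated hGal-3 (300-1000 ng/mL) bound to ASF-coated wells with serially diluted compound, 3 h at 4° C. After washing, bound protein was detected with streptavidin-peroxidase (80 ng/mL, 1 h, 4° C) and ABTS substrate; IC50 values are means of several measurements.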

The target of the next experiment is human Gal-1 (hGal-1). The experiment is described as follows: Competitive binding assay: binding of biotinylated hGal-1 to microplate-adsorbed asialofetuin (ASF). The following applies: Activities on hGal-1; mean values of several measurements. In short, it runs like this:
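Compounds diluted in DMSO competed with biotinylated hGal-3 or hGal-1 (300-1000 ng/mL) for binding to plate-adsorbed asialofetuin for 3 h at 4° C. Bound galectin was detected with streptavidin-peroxidase (80 ng/mL, 1 h, 4° C) and ABTS substrate; IC50 reported as mean of several measurements.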

Chain of human Gal-1 (hGal-1) (P09382 2-135 limits assumed): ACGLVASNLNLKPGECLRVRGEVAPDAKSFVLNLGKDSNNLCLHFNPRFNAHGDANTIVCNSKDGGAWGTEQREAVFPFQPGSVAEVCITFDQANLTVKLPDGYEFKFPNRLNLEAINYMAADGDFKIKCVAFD
Chain of human Gal-3 (hGal-3) (P17931 whole entry): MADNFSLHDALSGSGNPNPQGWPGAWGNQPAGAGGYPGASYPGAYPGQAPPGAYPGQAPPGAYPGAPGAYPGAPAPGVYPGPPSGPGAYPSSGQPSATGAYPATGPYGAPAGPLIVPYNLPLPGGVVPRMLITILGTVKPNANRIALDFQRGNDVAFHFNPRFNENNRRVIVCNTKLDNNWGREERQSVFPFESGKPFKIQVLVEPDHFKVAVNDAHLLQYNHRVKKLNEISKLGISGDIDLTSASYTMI

One may read the IC50 as the concentration that inhibits the measured activity by half. As to `CCN(C)C(=O)N1CCC(c2cc(C[C@H]3O[C@H](CO)[C@H](O)[C@H](n4cc(-c5cc(F)c(F)c(F)c5)nn4)[C@H]3OC)no2)CC1` [Example 3.68, N-ethyl-4-(3-(((2R,3R,4S,5R,6R)-5-hydroxy-6-(hydroxymethyl)-3-methoxy-4-(4-(3,4,5-trifluorophenyl)-1H-1,2,3-triazol-1-yl)tetrahydro-2H-pyran-2-yl)methyl)isoxazol-5-yl)-N-methylpiperidine-1-carboxamide], the IC50 on human Gal-3 (hGal-3) turned out to be 110 nM; at human Gal-1 (hGal-1), 2460 nM.

Regarding `CS(=O)(=O)N1CCC(c2cc(C[C@H]3O[C@H](CO)[C@H](O)[C@H](n4cc(-c5cc(F)c(F)c(F)c5)nn4)[C@H]3O)no2)CC1` [Example 3.28, (2R,3R,4R,5R,6R)-2-(hydroxymethyl)-6-((5-(1-(methylsulfonyl)piperidin-4-yl)isoxazol-3-yl)methyl)-4-(4-(3,4,5-trifluorophenyl)-1H-1,2,3-triazol-1-yl)tetrahydro-2H-pyran-3,5-diol], the concentration for half-maximal inhibition (IC50) came out at 38 nM on human Gal-3 (hGal-3) and 1230 nM at human Gal-1 (hGal-1).

On to `CO[C@@H]1[C@@H](n2cc(-c3cc(F)c(C)cc3F)nn2)[C@@H](O)[C@@H](CO)O[C@@H]1Cc1cc(C2CCCCC2)on1` [Ex 1.248], for which the IC50 is 700 nM at human Gal-3 (hGal-3) and over 100000 nM on human Gal-1 (hGal-1).

For the compound `Cc1cc(-c2cn([C@H]3[C@@H](O)[C@@H](CO)O[C@H](CC4CC(C5CCN(C(=O)OC(C)(C)C)CC5)=NO4)[C@@H]3O)nn2)ccc1F` (some centres unmarked) [Ex 1.99], the IC50 on human Gal-3 (hGal-3) is 400 nM; on human Gal-1 (hGal-1), 471 nM.

Turning to `CO[C@@H]1[C@@H](n2cc(-c3cc(F)c(F)c(F)c3)nn2)[C@@H](O)[C@@H](CO)O[C@@H]1C[C@H]1CC([C@@H]2CCNC(=O)C2)=NO1` [Ex 1.91], the half-maximal inhibitory concentration (IC50) on human Gal-3 (hGal-3) worked out at 480 nM; at human Gal-1 (hGal-1), 11800 nM.

As to `CO[C@@H]1[C@@H](n2cc(-c3cc(F)c(F)c(F)c3)nn2)[C@@H](O)[C@@H](CO)O[C@@H]1Cc1cc(C2(CC#N)CC2)no1` [Ex 1.313], the IC50 at human Gal-3 (hGal-3) was 130 nM; at human Gal-1 (hGal-1) it was 2940 nM.

With `CO[C@@H]1[C@@H](n2cc(-c3cc(F)cc(Cl)c3)nn2)[C@@H](O)[C@@H](CO)O[C@@H]1Cc1cc(C2CCN(C(C)=O)CC2)on1` [Ex 1.169], the half-inhibitory concentration (IC50) was determined as 154 nM on human Gal-3 (hGal-3) and 470 nM at human Gal-1 (hGal-1).

On to `CC(=O)O[C@@H]1[C@@H](n2cc(-c3cc(F)c(F)c(F)c3)nn2)[C@@H](O)[C@@H](CO)O[C@@H]1CC1=NOC(C2CCN(C(C)=O)CC2)C1` (mixture of isomers) [Example 3.23, (2R,3R,4S,5R,6R)-2-(((RS)-5-(1-acetylpiperidin-4-yl)-4,5-dihydroisoxazol-3-yl)methyl)-5-hydroxy-6-(hydroxymethyl)-4-(4-(3,4,5-trifluorophenyl)-1H-1,2,3-triazol-1-yl)tetrahydro-2H-pyran-3-yl acetate], for which the IC50 on human Gal-3 (hGal-3) came to 230 nM; on human Gal-1 (hGal-1), 3990 nM.

Regarding `CC(C)(C)c1cc(C[C@H]2O[C@H](CO)[C@H](O)[C@H](n3cc(-c4cc(F)c(F)c(F)c4)nn3)[C@H]2OCC(=O)N2CC[C@H](O)C2)no1` [Example 2.42, 2-(((2R,3R,4S,5R,6R)-2-((5-(tert-butyl)isoxazol-3-yl)methyl)-5-hydroxy-6-(hydroxymethyl)-4-(4-(3,4,5-trifluorophenyl)-1H-1,2,3-triazol-1-yl)tetrahydro-2H-pyran-3-yl)oxy)-1-((S)-3-hydroxypyrrolidin-1-yl)ethan-1-one], the IC50 was found to be 180 nM at human Gal-3 (hGal-3) and 3270 nM on human Gal-1 (hGal-1).

As to `CO[C@@H]1[C@@H](n2cc(-c3cc(F)c(F)c(F)c3)nn2)[C@@H](O)[C@@H](CO)O[C@@H]1Cn1cc(C2CCN(C(=O)NC3CC3)CC2)nn1` [Example 4.32, N-cyclopropyl-4-(1-(((2R,3R,4S,5R,6R)-5-hydroxy-6-(hydroxymethyl)-3-methoxy-4-(4-(3,4,5-trifluorophenyl)-1H-1,2,3-triazol-1-yl)tetrahydro-2H-pyran-2-yl)methyl)-1H-1,2,3-triazol-4-yl)piperidine-1-carboxamide], the IC50 on human Gal-3 (hGal-3) came to 65 nM; at human Gal-1 (hGal-1) it was 884 nM.

As for `OC[C@H]1O[C@H](Cc2cc(C3CCOCC3)on2)[C@H](O)[C@@H](n2cc(-c3cc(F)c(F)c(F)c3)nn2)[C@H]1O` [Ex 1.60], the concentration for half-maximal inhibition (IC50) on human Gal-3 (hGal-3) was 290 nM; on human Gal-1 (hGal-1), 6970 nM.

Take `CO[C@@H]1[C@@H](n2cc(-c3cc(F)c(F)c(F)c3)nn2)[C@@H](O)[C@@H](CO)O[C@@H]1CC1CC(C2CCCC2)=NO1` (some centres unmarked) [Ex 1.12]: the IC50 at human Gal-3 (hGal-3) stood at 670 nM; on human Gal-1 (hGal-1), 3550 nM.

Take `CCCS(=O)(=O)N1CCC(c2cc(C[C@H]3O[C@H](CO)[C@H](O)[C@H](n4cc(-c5cc(F)c(F)c(F)c5)nn4)[C@H]3OC)no2)CC1` [Example 3.46, (2R,3R,4S,5R,6R)-2-(hydroxymethyl)-5-methoxy-6-((5-(1-(propylsulfonyl)piperidin-4-yl)isoxazol-3-yl)methyl)-4-(4-(3,4,5-trifluorophenyl)-1H-1,2,3-triazol-1-yl)tetrahydro-2H-pyran-3-ol]: the half-maximal inhibitory concentration (IC50) at human Gal-3 (hGal-3) turned out to be 44 nM; at human Gal-1 (hGal-1), 580 nM.

In the case of `CO[C@@H]1[C@@H](n2cc(-c3ccc(C)c(F)c3F)nn2)[C@@H](O)[C@@H](CO)O[C@@H]1Cc1cc(C2CCOCC2)on1` [Ex 1.186], the IC50 at human Gal-3 (hGal-3) amounted to 85 nM; on human Gal-1 (hGal-1), 6200 nM.

Consider `CO[C@@H]1[C@@H](n2cc(-c3cc(F)c(F)c(F)c3)nn2)[C@@H](O)[C@@H](CO)O[C@@H]1Cc1cc(C2(O)CCCC2)on1` [Ex 1.72], for which the half-inhibitory concentration (IC50) on human Gal-3 (hGal-3) came out at 360 nM; at human Gal-1 (hGal-1), 5110 nM.

For `CO[C@@H]1[C@@H](n2cc(-c3cc(F)c(F)c(F)c3)nn2)[C@@H](O)[C@@H](CO)O[C@@H]1CN1CC(=O)N(C2CCOCC2)C1` [Example 6.10, 1-(((2R,3R,4S,5R,6R)-5-hydroxy-6-(hydroxymethyl)-3-methoxy-4-(4-(3,4,5-trifluorophenyl)-1H-1,2,3-triazol-1-yl)tetrahydro-2H-pyran-2-yl)methyl)-3-(tetrahydro-2H-pyran-4-yl)imidazolidin-4-one], the half-maximal inhibitory concentration (IC50) turned out to be 37 nM on human Gal-3 (hGal-3) and 890 nM on human Gal-1 (hGal-1).

In the case of `CO[C@@H]1[C@@H](n2cc(-c3cc(F)c(F)c(F)c3)nn2)[C@@H](O)[C@@H](CO)O[C@@H]1Cc1cc(C(C)(C)CO)no1` [Ex 1.207], the concentration for half-maximal inhibition (IC50) worked out at 110 nM at human Gal-3 (hGal-3) and 1160 nM at human Gal-1 (hGal-1).

Consider `CO[C@@H]1[C@@H](n2cc(-c3cc(F)c(F)c(F)c3)nn2)[C@@H](O)[C@@H](CO)O[C@@H]1CC1CN(C2CCN(C(=O)OC(C)(C)C)CC2)C(=O)O1` (mixture of isomers) [Example 5.09, tert-butyl 4-((RS)-5-(((2R,3R,4S,5R,6R)-5-hydroxy-6-(hydroxymethyl)-3-methoxy-4-(4-(3,4,5-trifluorophenyl)-1H-1,2,3-triazol-1-yl)tetrahydro-2H-pyran-2-yl)methyl)-2-oxooxazolidin-3-yl)piperidine-1-carboxylate], for which the IC50 on human Gal-3 (hGal-3) came to 83 nM; at human Gal-1 (hGal-1) it was 460 nM.

On to `CO[C@@H]1[C@@H](n2cc(-c3cc(F)c(F)c(F)c3)nn2)[C@@H](O)[C@@H](CO)O[C@@H]1Cc1cc(C2CCC2)on1` [Ex 1.74], for which the half-maximal inhibitory concentration (IC50) worked out at 180 nM at human Gal-3 (hGal-3) and 3160 nM at human Gal-1 (hGal-1).

As to `CO[C@@H]1[C@@H](n2cc(-c3ccc(C)c(F)c3F)nn2)[C@@H](O)[C@@H](CO)O[C@@H]1Cc1cc(C2CCCC2)on1` [Ex 1.240], the 50% inhibitory concentration (IC50) at human Gal-3 (hGal-3) is 100 nM; on human Gal-1 (hGal-1) it was 13900 nM.

As for `CO[C@@H]1[C@@H](n2cc(-c3cc(F)c(F)c(F)c3)nn2)[C@@H](O)[C@@H](CO)O[C@@H]1CC1CN(C2CCN(S(=O)(=O)C(C)(C)C)CC2)C(=O)O1` (mixture of isomers) [Example 5.22, (RS)-3-(1-(tert-butylsulfonyl)piperidin-4-yl)-5-(((2R,3R,4S,5R,6R)-5-hydroxy-6-(hydroxymethyl)-3-methoxy-4-(4-(3,4,5-trifluorophenyl)-1H-1,2,3-triazol-1-yl)tetrahydro-2H-pyran-2-yl)methyl)oxazolidin-2-one], the IC50 at human Gal-3 (hGal-3) stood at 67 nM; at human Gal-1 (hGal-1) it was 760 nM.

Regarding `CO[C@@H]1[C@@H](n2cc(-c3ccc(C)c(F)c3F)nn2)[C@@H](O)[C@@H](CO)O[C@@H]1Cc1cc(C(C)(O)c2ccccc2F)on1` (some centres unmarked) [Ex 1.321], the half-maximal inhibitory concentration (IC50) came out at 400 nM at human Gal-3 (hGal-3) and 9170 nM on human Gal-1 (hGal-1).

In the case of `CO[C@@H]1[C@@H](n2cc(-c3cc(F)c(F)c(F)c3)nn2)[C@@H](O)[C@@H](CO)O[C@@H]1Cc1cc(C2(O)CCN(C(=O)OC(C)(C)C)CC2)on1` [Ex 1.132], the IC50 stood at 69 nM on human Gal-3 (hGal-3) and 760 nM at human Gal-1 (hGal-1).

In the case of `CO[C@@H]1[C@@H](n2cc(-c3ccc(C)c(F)c3F)nn2)[C@@H](O)[C@@H](CO)O[C@@H]1Cc1cc(C2(C)CCOCC2)on1` [Ex 1.270], the values for the IC50 at human Gal-3 (hGal-3) and on human Gal-1 (hGal-1) were 38 nM and 3550 nM, respectively.

For the compound `CO[C@@H]1[C@@H](n2cc(-c3cc(F)c(F)c(F)c3)nn2)[C@@H](O)[C@@H](CO)O[C@@H]1Cc1cc(C2(O)COC2)on1` [Ex 1.69], the values for the IC50 at human Gal-3 (hGal-3) and at human Gal-1 (hGal-1) were 450 nM and 6730 nM, respectively.

In the case of `CO[C@@H]1[C@@H](n2cc(-c3cc(F)c(F)c(F)c3)nn2)[C@@H](O)[C@@H](CO)O[C@@H]1Cn1cc(C(C)(C)C)nn1` [Example 4.38, (2R,3R,4S,5R,6R)-6-((4-(tert-butyl)-1H-1,2,3-triazol-1-yl)methyl)-2-(hydroxymethyl)-5-methoxy-4-(4-(3,4,5-trifluorophenyl)-1H-1,2,3-triazol-1-yl)tetrahydro-2H-pyran-3-ol], the 50% inhibitory concentration (IC50) worked out at 93 nM on human Gal-3 (hGal-3) and 1810 nM on human Gal-1 (hGal-1).

`COc1ccc(C2=NO[C@H](C[C@H]3O[C@H](CO)[C@H](O)[C@H](n4cc(-c5cc(F)c(F)c(F)c5)nn4)[C@H]3O)C2)cc1` [Ex 1.03]: the figures for the IC50 on human Gal-3 (hGal-3) and at human Gal-1 (hGal-1) were 310 nM and 5450 nM, respectively.

As for `OC[C@H]1O[C@H](Cc2cc(C3(O)CCCC3)on2)[C@H](O)[C@@H](n2cc(-c3cc(F)c(F)c(F)c3)nn2)[C@H]1O` [Ex 1.58], the 50% inhibitory concentration (IC50) at human Gal-3 (hGal-3) was found to be 490 nM; at human Gal-1 (hGal-1) it was 13600 nM.
